Experimental data taken from patent US6589970B2, “6-(aryl-amido or aryl-amidomethyl)-naphthalen-2-yloxy-acidic derivatives as inhibitors of plasminogen activator inhibitor type-1 (PAI-1)” (Wyeth, priority 2001, dated 2003).
Where a name gives a salt, the structure may show the parent alone.

Assays:
[1] = target: T1, recombinant human plasminogen activator inhibitor-1 (PAI-1) (Homo sapiens, UniProt P05121); experiment: Primary Screen for the PAI-1 Inhibition; type: biochemical; conditions: for inhibition at 100 µM: 100 μM test compound, read-out: % Inhib. 100 μM; for inhibition at 25 µM: 25 μM test compound, read-out: % Inhib. 25 μM
T1 construct: purchased Molecular Innovations, Royal Oak, Mich
Protocol: Test compounds are dissolved in DMSO at a final concentration of 10 mM, then diluted 100× in physiologic buffer. The inhibitory assay is initiated by the addition of the test compound (1-100 μM final concentration, maximum DMSO concentration of 0.2%) in a pH 6.6 buffer containing 140 nM recombinant human plasminogen activator inhibitor-1 (PAI-1; Molecular Innovations, Royal Oak, Mich.). Following a 1 hour incubation at room temperature, 70 nM of recombinant human tissue plasminogen activator (tPA) is added, and the combination of the test compound, PAI-1 and tPA is incubated for an additional 30 minutes. Following the second incubation, Spectrozyme-tPA (American Diagnostica, Greenwich, Conn.), a chromogenic substrate for tPA, is added and absorbance read at 405 nm at 0 and 60 minutes. Relative PAI-1 inhibition is equal to the residual tPA activity in the presence of the test compound and PAI-1. Control treatments include the complete inhibition of tPA by PAI-1 at the molar ratio employed (2:1), and the absence of any effect of the test compound on tPA alone.

[2] = target: human PAI-1 (Homo sapiens, UniProt P05121); experiment: Assay for Determining IC50 of Inhibition of PAI-1 (Antibody Assay); type: biochemical; conditions: active PAI-1 bound to tPA-coated plate
Protocol: This assay is based upon the non-SDS dissociable interaction between tPA and active PAI-1. Assay plates are initially coated with human tPA (10 μg/ml). The test compounds are dissolved in DMSO at 10 mM, then diluted with physiologic buffer (pH 7.5) to a final concentration of 1-50 μM. The test compounds are incubated with human PAI-1 (50 ng/ml) for 15 minutes at room temperature. The tPA-coated plate is washed with a solution of 0.05% Tween 20 and 0.1% BSA, then the plate is blocked with a solution of 3% BSA. An aliquot of the test compound/PAI-1 solution is then added to the tPA-coated plate, incubated at room temperature for 1 hour, and washed. Active PAI-1 bound to the plate is assessed by adding an aliquot of a 1:1000 dilution of the 33B8 monoclonal antibody against human PAI-1, and incubating the plate at room temperature for 1 hour (Molecular Innovations, Royal Oak, Mich. The plate is again washed, and a solution of goat anti-mouse IgG-alkaline phosphatase conjugate is added at a 1:50,000 dilution in goat serum. The plate is incubated 30 minutes at room temperature, washed, and a solution of alkaline phosphatase substrate is added. The plate is incubated 45 minutes at room temperature, and color development is determined at OD405nm. The quantitation of active PAI-1 bound to tPA at varying concentrations of the test compound is used to determine the IC50. Results are analyzed using a logarithmic best-fit equation. The assay sensitivity is 5 ng/ml of human PAI-1 as determined from a standard curve ranging from 0-100 ng/ml.

T1 sequence (P05121 24-402): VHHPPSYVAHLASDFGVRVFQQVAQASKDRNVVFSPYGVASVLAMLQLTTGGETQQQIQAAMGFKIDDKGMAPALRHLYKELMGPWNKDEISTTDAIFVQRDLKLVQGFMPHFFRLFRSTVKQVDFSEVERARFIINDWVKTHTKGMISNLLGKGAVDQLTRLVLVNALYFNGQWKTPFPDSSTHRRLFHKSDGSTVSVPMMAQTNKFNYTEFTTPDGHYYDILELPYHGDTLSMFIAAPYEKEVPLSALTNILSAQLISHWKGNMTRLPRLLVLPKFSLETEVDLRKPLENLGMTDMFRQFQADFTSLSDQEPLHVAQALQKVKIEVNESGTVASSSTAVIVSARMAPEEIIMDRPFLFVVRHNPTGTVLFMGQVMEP
Chain of human PAI-1 (P05121 24-402): as above

Structure (SMILES)	melting point [°C]	inhibition at 100 µM [1] [%]	inhibition at 25 µM [1] [%]	IC50 [2] [µM]
CCCCc1oc2ccccc2c1C(=O)Nc1ccc2c(Br)c(OCC(=O)O)ccc2c1 (as salt: sodium) [Example 6, {1-Bromo-6-[(2-butyl-benzofuran-3-carbonyl)-amino]-naphthalen-2-yloxy}-acetic acid sodium salt]	284 to 287	–	–	–
O=C(O)COc1ccc2cc(CNC(=O)c3cnn(-c4ccc(Cl)cc4)c3C(F)(F)F)ccc2c1 [Example 14, [6-({[1-(4-Chloro-phenyl)-5-trifluoromethyl-1H-pyrazole-4-carbonyl]-amino}-methyl)-naphthalen-2-yloxy]-acetic acid]	–	70	1	51
Cc1c(C(=O)NCc2ccc3c(Br)c(OC(Cc4ccccc4)C(=O)O)ccc3c2)oc2ccccc12 (centres unmarked) [Example 44, 2-(1-Bromo-6-{[(3-methyl-benzofuran-2-carbonyl)-amino]-methyl}-naphthalen-2-yloxy)-3-phenyl-propionic acid]	110 to 113	–	–	–
CN(Cc1ccc2c(Br)c(OCc3nnn[nH]3)ccc2c1)C(=O)c1oc2ccccc2c1CCc1ccccc1 [Example 45, 3-Phenethyl-benzofuran-2-carboxylic acid [5-bromo-6-(1H-tetrazol-5-ylmethoxy)-naphthalen-2-ylmethyl]-methyl-amide]	56 to 59	17	–	–
CN(Cc1ccc2c(Br)c(OC(Cc3ccccc3)C(=O)O)ccc2c1)C(=O)c1oc2ccccc2c1CCc1ccccc1 (centres unmarked) [Example 46, 2-(1-Bromo-6-{[methyl-(3-phenethyl-benzofuran-2-carbonyl)-amino]-methyl}-naphthalen-2-yloxy)-3-phenyl-propionic acid]	87 to 90	88	58	–
CN(Cc1ccc2c(Br)c(OCC(=O)O)ccc2c1)C(=O)c1oc2ccccc2c1CCc1ccccc1 [Example 47, (1-Bromo-6-{[methyl-(3-phenethyl-benzofuran-2-carbonyl)-amino]-methyl}-naphthalen-2-yloxy)-acetic acid]	119 to 122	90	59	–
O=C(O)COc1ccc2cc(CNC(=O)c3cc(-c4ccc(C(F)(F)F)cc4)oc3C(F)(F)F)ccc2c1 [Example 82, [6-({[2-Trifluoromethyl-5-(4-trifluoromethyl-phenyl)-furan-3-carbonyl]-amino}methyl)-naphthalen-2-yloxy]-acetic acid]	–	68	9	–
O=C(O)COc1ccc2cc(CNC(=O)c3ccccc3CCc3ccccc3)ccc2c1 [Example 83, {6-[(2-Phenethyl-benzoylamino)-methyl]-naphthalen-2-yloxy}-acetic acid]	–	45	–	–
O=C(O)COc1ccc2cc(CNC(=O)C3(c4ccc(Cl)cc4)CCCC3)ccc2c1 [Example 84, [6-({[1-(4-Chloro-phenyl)-cyclopentanecarbonyl]-amino}-methyl)-naphthalen-2-yloxy]-acetic acid]	–	34	–	–
O=C(O)COc1ccc2cc(CNC(=O)c3ccc(-c4cccc(C(F)(F)F)c4)o3)ccc2c1 [Example 85, [6-({[5-(3-Trifluoromethyl-phenyl)-furan-2-carbonyl]-amino}-methyl)-naphthalen-2-yloxy]-acetic acid]	–	34	–	–
CC(C)(C)c1cc(C(=O)NCc2ccc3cc(OCC(=O)O)ccc3c2)cc(C(C)(C)C)c1 [Example 86, {6-[(3,5-Di-tert-butyl-benzoylamino)methyl]-naphthalen-2-yloxy}-acetic acid]	–	33	–	–
O=C(O)COc1ccc2cc(CNC(=O)C3(c4ccccc4)CCCC3)ccc2c1 [Example 87, (6-{[(1-Phenyl-cyclopentanecarbonyl)-amino]-methyl}-naphthalen-2-yloxy)-acetic acid]	–	32	–	–

More lines, now with the values ahead:

melting point [°C]	inhibition at 100 µM [1] [%]	inhibition at 25 µM [1] [%]	IC50 [2] [µM]	Structure (SMILES)
207 to 210	–	–	–	CCCCc1oc2ccccc2c1C(=O)NCc1ccc2cc(OCc3nnn[nH]3)ccc2c1 (as salt: sodium) [Example 8, 2-Butyl-benzofuran-3-carboxylic acid [6-(1H-tetrazol-5-ylmethoxy)-naphthalen-2-ylmethyl]-amide sodium salt]
260	–	–	–	CCCCc1oc2ccccc2c1C(=O)NCc1ccc2c(Br)c(OCC(=O)O)ccc2c1 (as salt: sodium) [Example 19, Sodium; (1-bromo-6-{[(2-butyl-benzofuran-3-carbonyl)-amino]-methyl}-naphthalen-2-yloxy)-acetate]
147 to 152	–	–	–	CCCCc1oc2ccccc2c1C(=O)NCc1ccc2c(-c3ccc(OC)cc3)c(OCc3nnn[nH]3)ccc2c1 (as salt: sodium) [Example 25, 2-Butyl-benzofuran-3-carboxylic [5-(4-methoxy phenyl)-6-(1H-tetrazol-5-ylmethoxy)-naphthalen-2-ylmethyl]-amide, sodium salt]
242 to 245	47	–	–	CCCCc1oc2ccccc2c1C(=O)Nc1ccc2c(Br)c(OCc3nn[nH]n3)ccc2c1 [Example 5, 2-Butyl-benzofuran-3-carboxylic acid [5-bromo-6-(2H-tetrazol-5-ylmethoxy)-naphthalen-2-yl]-amide]
> 275	89	28	–	CCCCc1oc2ccccc2c1C(=O)NCc1ccc2cc(OCC(=O)[O-])ccc2c1.[Na+] [Example 9, Sodium; (6-{[(2-butyl-benzofuran-3-carbonyl)-amino]-methyl}-naphthalen-2-yloxy)-acetate]
219 to 220	70	12	–	CCCc1c(C(=O)NCc2ccc3c(Br)c(OCc4nnn[nH]4)ccc3c2)cnn1-c1ccccc1 [Example 22, 1-Phenyl-5-propyl-1H-pyrazole-4-carboxylic acid [5-bromo-6-(1H-tetrazol-5-ylmethoxy)-naphthalen-2-ylmethyl]-amide]
162 to 166	48	–	–	CCCCc1oc2ccccc2c1C(=O)NCc1ccc2c(-c3ccc(C)cc3)c(OCc3nnn[nH]3)ccc2c1 [Example 23, 2-Butyl-benzofuran-3-carboxylic acid [6-(1H-tetrazol-5-ylmethoxy)-5-p-tolyl-naphthalen-2-ylmethyl]-amide]
75 to 78	39	–	–	CCCCc1oc2ccccc2c1C(=O)NCc1ccc2c(-c3ccc(C(C)(C)C)cc3)c(OCc3nnn[nH]3)ccc2c1 [Example 27, 2-Butyl-benzofuran-3-carboxylic acid [5-(4-tert-butyl-phenyl)-6-(1H-tetrazol-5-ylmethoxy)-naphthalen-2-ylmethyl]-amide]
147 to 149	46	4	–	CCCCc1c(C(=O)N(C)Cc2ccc3c(Br)c(OCc4nnn[nH]4)ccc3c2)c2ccccc2n1C [Example 36, 2-Butyl-1-methyl-1H-indole-3-carboxylic acid [5-bromo-6-(1H-tetrazol-5-ylmethoxy)-naphthalen-2-ylmethyl]-methyl-amide]
180 to 183	69	24	–	CCCCc1c(C(=O)N(C)Cc2ccc3c(Br)c(OCc4nnn[nH]4)ccc3c2)oc2ccccc12 [Example 39, 3-Butyl-benzofuran-2-carboxylic acid [5-bromo-6-(1H-tetrazol-5-ylmethoxy)-naphthalen-2-ylmethyl]-methyl-amide]
164 to 166	91	49	–	Cc1c(C(=O)N(C)Cc2ccc3c(Br)c(OCc4nnn[nH]4)ccc3c2)oc2ccccc12 [Example 41, 3-Methyl-benzofuran-2-carboxylic acid [5-bromo-6-(1H-tetrazol-5-ylmethoxy)-naphthalen-2-ylmethyl]-methyl-amide]
212 to 215	71	47	–	Cc1c(C(=O)NCc2ccc3c(Br)c(OCc4nnn[nH]4)ccc3c2)oc2ccccc12 [Example 43, 3-Methyl-benzofuran-2-carboxylic acid [5-bromo-6-(1H-tetrazol-5-ylmethoxy)-naphthalen-2-ylmethyl]-amide]
